# PMC10534891, “Evaluation of 4-Aminoquinoline Hydrazone Analogues as Potential Leads for Drug-Resistant Malaria” (Molecules, 2023)
# Like-named read-outs stand apart in the source and are kept apart here.
# Key:
# P. falciparum K1 strain [1] = settings: read-out: IC50 (published data); published value for comparison; cited from earlier work
# P. falciparum K1 strain [2] = assay: P. falciparum K1 asexual growth inhibition, 48 h, SYBR Green-based plate reader assay; type: cell-based, Plasmodium falciparum; settings: Plasmodium falciparum, read-out: Plasmodium IC50 ± SE
# Protocol: Sixteen 4-amino-6-methoxy-quinoline hydrazone compounds (see Figure S1, Supplementary Materials for full structures), with methyl and phenyl substituents at the 2-position (R = Me, Ph) and various substituents at R’ (Table 1), were tested for their antimalarial activities. A 1% parasitised culture at the trophozoite stage was treated with the compounds for 48 h at concentrations of 0.003050–200 µM (four-fold serial dilution) against the P. falciparum K1 strain, and the growth was measured using the SYBR Green-based plate reader assay.
# (§1) In total, 1% of infected RBCs at the ring or trophozoites stage was exposed to nine dilutions (four-fold serial dilution) of compounds from 50 mM stock solutions in DMSO. A total of 100 µL of culture volume was added in 96-well plates with 100 µL drug dilutions. Plates were either incubated for 48 h or 72 h at 37 °C, 5% CO2, 5% O2 in N2. Following the incubation, 150 µL of the medium was carefully removed and 150 µL of the 5× SYBR Green solution (prepared by adding 2 µL of 10,000× SYBR Green in 4 mL of PBS) was added to each well. Plates were kept in the dark for 45 min. Fluorescence intensity was measured using a microplate reader (Genius Tecan) with an excitation of 485 nm and an emission of 535 nm.
# (§2) IC50 values were determined using Graph Pad Prism 5.0. Values were calculated using non-linear regression by using log-transformed drug concentration plotted against dose–response. Parasitaemia was calculated and normalised relative to the response on the controls (cultures without drug).
# P. yoelii NL = test system: P. yoelii NL
# Protocol: We next assessed the antimalarial activity of compound 2 in vivo within a P. yoelii NL murine model of blood-stage malaria. […] Two dosages of the drug were tested, 5 mg/kg and 20 mg/kg (intravenous tail vein injection), while another group of mice was administered with the drug vehicle alone (Figure 3). The lead compound 2 was injected once a day for 4 days, starting at day 11 when the infection level reached ~5% parasitaemia. Mice were monitored for a total of 20 days in order to detect signs of infection rebound or eventual toxicity.
# C57BL/6 mice were purchased from Charles River, UK, and were maintained at the University of Manchester in individually ventilated cages. A total of six mice were used for this experiment and kept in the cage (two in each cage) with randomisation of mice given antimalarial drugs and vehicle control. The mice were maintained in individually ventilated cages with food and water ad libitum. Male and females were kept within separate cages during the course of the experiment. The mice generally weighed 18–20 g at the start of the experiment. Cryopreserved P. yoelii NL parasites were passed once through mice before the infection experiment. Male/female mice 6–10 weeks in age were infected with 1 × 10^4 parasitised red blood cells (pRBCs) via intravenous injection in the tail vein. Parasitaemia growth was monitored via Giemsa-stained blood smears. Three groups of mice (placebo, drug dose of 5 mg/kg or 20 mg/kg) were used for this experiment. Compound 2 was injected once a day for 4 days starting at the day the infection level reached ~5% parasitaemia. After the injection, mice were monitored for 20 days to detect eventual signs of both infection rebound and toxicity.
# MDBK cells = assay: MTT cytotoxicity assay, MDBK; type: cell-based, bovine; settings: MDBK IC50 (5 days) / K1 72 h IC50; IC50 = 25 μM assumed for compounds 5 and 13
# Protocol: (§3) An MTT (3-(4,5-dimethylthiazol-2-yl)-2,5-diphenyl tetrazolium bromide) assay was performed to investigate the toxicity of the 4-aminoquinoline hydrazone compounds. HepG2 and MDBK cells were incubated with a two-fold serial dilution at dose ranges from 0.39 to 25 µM for 5 days.
# (§4) Human hepatoma (HepG2) and the Madin–Darby bovine kidney (MDBK) cell lines were purchased from American Type Culture Collection (ATCC), USA. The MDBK cell line was cultured with Dulbecco’s Modified Eagle’s Medium (DMEM) containing 4.5 g/L (+)-D-glucose and L-glutamine, while the HepG2 cell line was cultured with RPMI 1640 containing 2 mM L-glutamine and HEPES. The culture medium was supplemented with 10% Fetal Bovine Serum (FBS) and 1% penicillin. Cells were maintained in the presence of 5% CO2 atmosphere at 37 °C. The assay was carried out on a 96-well plate, with each well containing 4 × 10^3 cells. Plates were firstly incubated for 24 h at 37 °C to ensure cell adherence. The cells were then treated with 100 µL of the drug solution prepared at various concentrations and further incubated for 5 days. After the incubation period, 50 µL of the MTT (3-(4,5-dimethylthiazol-2-yl)-2,5-diphenyltetrazolium bromide, Sigma, UK) solution was added to each well and incubated for a further 3 h. The MTT solution and medium were aspirated, 150 µL of DMSO was added to each well, and the results were read on the Ascent plate reader.
# [3] = MTT cytotoxicity assay, MDBK; type: cell-based, bovine; settings: bovine, MDBK cells; MTT, 5 days; read-out: Cell Toxicity IC50 ± SE MDBK
# Protocol: as §3, §4
# HepG2 cells = assay: MTT cytotoxicity assay, HepG2; type: cell-based, Human; settings: HepG2 IC50 (5 days) / K1 72 h IC50; IC50 = 25 μM assumed for compound 13
# Protocol: as §3, §4
# [4] = MTT cytotoxicity assay, HepG2; type: cell-based, Human; settings: human, HepG2 cells; MTT, 5 days; read-out: Cell Toxicity IC50 ± SE HepG2
# Protocol: as §3, §4
# P. falciparum 3D7 = P. falciparum 3D7 dose-response, 72 h, SYBR Green-based plate reader assay; type: cell-based; settings: Plasmodium falciparum, ring stage, read-out: 3D7 IC50 ± SE
# Protocol: (§5) The lead compounds 1 and 2 were further evaluated against the chloroquine-resistant P. falciparum Dd2 strain and chloroquine-sensitive P. falciparum 3D7. The drug activity assay was initiated on 1% infected blood at ring stages of the parasites at four-fold serial dilution from 0.00305 to 200 µM. The growth was measured after 72 h using an SYBR Green-based plate reader assay.
# as §1
# P. falciparum Dd2 strain = assay: P. falciparum Dd2 dose-response, 72 h, SYBR Green-based plate reader assay; type: cell-based; settings: Plasmodium falciparum, ring stage, read-out: Dd2 IC50 ± SE
# Protocol: as §5, §1
# P. falciparum K1 strain [5] = assay: P. falciparum K1 dose-response, 72 h, SYBR Green-based plate reader assay; type: cell-based; settings: Plasmodium falciparum
# Protocol: We set up drug efficacy assays for the eight lead compounds 1–5, 12–14 (selected based on the best antimalarial activities) (Table 1), with 72 h incubation on parasitised culture. A dose–response experiment was initiated on 1% synchronous culture at the ring stages of the P. falciparum K1 strain. The selected compounds were tested at three-fold serial dilutions from 6.86 to 5000 nM. […] The selectivity indices (IC50 human cells/IC50 parasites) were calculated based on the 72 h exposure studies and are presented in Table 2.
# as §1, §2
# [6] = test system: P. falciparum K1 cultures; assay: Time-course assay, SYBR Green flow cytometer method; type: cell-based, Plasmodium falciparum; settings: IC50 doses, 24, 48, 72 h
# Protocol: A panel of compounds were selected based on activity and progressed in the time-course assay to define the activity timelines of the compounds. The assay was performed on 1% unsynchronised P. falciparum K1 cultures treated with previously determined IC50 (Table 1) doses of the lead compounds for 24, 48, and 72 h. […] It was also observed that the activity of the compounds became more pronounced as the time progressed up until 72 h of exposure.
# The time-course assay was used to define the activity timelines of the 4-aminoquinoline hydrazone compounds. Parasite growth of K1 strain P. falciparum in the presence of 4-aminoquinoline hydrazone compounds was assessed on asynchronous culture. The growth impairment of K1 culture was initiated at 1% parasitaemia for 24, 48, and 72 h. The assay was analysed by flow cytometry as described below.
# Following drug efficacy experiments, 100 µL from the control and drug-treated samples on a 96-well plate were transferred to a micro-centrifuge tube containing 1 mL of PBS. The samples were centrifuged at 1200 rpm for 2 min. […] The pellet was re-suspended in PBS (1 mL) and parasitaemia was determined by SYBR Green fluorescence using the FITC channel of the BD FACs Verse flow cytometer system (Blue laser, excitation laser line 488 nM Exmax 494/EMmax 520 nM) and cell size (forward scatter, FSC-A). […]
# [7] = ring stage, 72 h incubation, read-out: Plasmodium IC50 ± SE
# [8] = K1 strain, trophozoite stage, 48 h incubation
smiles,measurement,setting,value
"CCN(CC)CCCC(C)Nc1ccnc2cc(Cl)ccc12 (stereo not shown) [Chloroquine, reference compound]",IC50,P. falciparum K1 strain [1],255 ± 49 nM
same,IC50,"P. falciparum K1 strain [2]; K1, 48 h",199 ± 40 nM
"COc1ccc2nc(C)cc(NN=Cc3ccccc3)c2c1 [Compound 2, 4-(2-benzylidenehydrazinyl)-6-methoxy-2-methylquinoline]",Signs of toxicity in treated mice,"P. yoelii NL; 5 and 20 mg/kg i.v., monitored over three weeks",no detectable signs of significant toxicity
same,"Effect on parasitaemia, 20 mg/kg and 5 mg/kg",P. yoelii NL; P. yoelii NL-treated mice,suppression of parasitaemia
same,Parasitaemia after drug treatment was suspended,"P. yoelii NL; mice, 5 mg/kg and 20 mg/kg i.v. once a day for 4 days",less than 4%
same,"Effect on parasitaemia, 5 mg/kg","P. yoelii NL; mice, 5 mg/kg i.v. once a day for 4 days",delayed activity
same,Selectivity Indices (MDBK),MDBK cells,101
same,IC50 at 5 days,[3],3.44 ± 2.7 µM
same,Selectivity Indices (HepG2),HepG2 cells,58
same,IC50 at 5 days,[4],1900 ± 110 nM
same,IC50,P. falciparum 3D7,55.4 nM
same,IC50,P. falciparum Dd2 strain,24.4 nM
same,IC50,"P. falciparum K1 strain [5]; 72 h, read-out: IC50",32 nM
same,IC50,P. falciparum K1 strain [5]; [7],32.9 ± 7 nM
same,IC50,P. falciparum K1 strain [2]; [8],2260 ± 2200 nM
COc1ccc2nc(C)cc(N/N=C/c3cccnc3)c2c1 [Compound 3],Selectivity Indices (MDBK),MDBK cells,42
same,IC50 at 5 days,[3],7.34 ± 7.6 µM
same,Selectivity Indices (HepG2),HepG2 cells,17
same,IC50 at 5 days,[4],3000 ± 270 nM
same,IC50,P. falciparum K1 strain [5]; [7],175 ± 40 nM
same,Onset of activity in time-course,[6],delayed activity
same,IC50,P. falciparum K1 strain [2]; [8],3290 ± 1600 nM
